Reference: patent publication US7960556B2, “Thiadiazole derivatives for the treatment of neuro-degenerative diseases” (NV reMYND, priority 2006, dated 2011)

System: α-synuclein cytotoxicity in M17-SYNwt cells
Assay: α-synuclein cytotoxicity assay: LDH leakage from paraquat-treated M17-SYNwt neuroblastoma cells;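 note: paraquat at 32 mM co-added with compound, 40 h exposure, LDH activity released into the culture medium measured, references are DMSO-only cells and paraquat plus DMSO cells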
Conditions: Homo sapiens, Neuroblastoma cell; for Emax: read-out: % Inhib.
Excerpt: An α-synuclein expression plasmid was constructed by sub-cloning the NcoI/XhoI fragment from 212T-SYN(WT) (Griffioen et al., Biochem Biophys Acta (2006) 1762(3):312-318) containing the cDNA of human wild type α-synuclein correspondingly into a standard mammalian expression vector pcDNA3.1 (Invitrogen) resulting into the plasmid pcDNA3.1-SYNwt. Plasmids pcDNA3.1 and pcDNA3.1-SYNwt were transfected to human neuroblastoma cells (ATCC No. CRL-2267) and independent clonal lines with the plasmids stably integrated into the genome were selected. […] Over-expression of α-synuclein in M17-SYNwt cell lines was confirmed by Western analysis.
Due to the high levels of α-synuclein M17-SYNwt cells are exquisitely sensitivity to paraquat, a well-known risk factor of synuclein-dependent neuronal degeneration. In degenerated or dead cells lactate dehydrogenase (LDH) is leaked out of the cells into the extracellular environment due to a loss of plasma-membrane integrity. This principle was used to determine cytotoxicity by quantifying the level of leaked LDH into the growth medium.
The detailed method for determining α-synuclein cytotoxicity was as follows: From appropriate precultures of M17 and M17-SYN cells were seeded at 50,000 cells/cm^2 in Optimem Reduced Serum without phenol red (available from InVitrogen, Cat. 31985-047) supplemented with 5% fetal calf serum, 1 mM sodium pyruvate, 1× non-essential amino acids, 500 μg/ml G418 0,5× antibiotic/antimycotic. After 3 hours of incubation at 37° C./5% CO2 paraquat was added to the cells (final concentration of 32 mM), together with the test compound and the cells were further incubated for 40 hours. Subsequently, LDH activity was determined using Promega Cytotox 96 Non-Radioactive cytotoxicity assay, (Cat. G1780) according the instructions of the supplier.
In these experiments, the control group consisted of M17-SYNwt cells treated with DMSO, the untreated paraquat group consisted of M17-SYNwt cells treated with paraquat and DMSO, and the treated paraquat group consisted of M17-SYNwt cells treated with paraquat and the test compound dissolved in DMSO.

SMILES	Emax	EC50
CC1CN(c2nc(Cc3ccc(F)cc3)ns2)CCN1S(=O)(=O)c1ccc([N+](=O)[O-])cc1 (stereo not drawn) [compound 73, 1-[4-nitrophenylsulfonyl]-4-[3-(4-fluorobenzyl)-1,2,4-thiadiazol-5-yl]-2-methylpiperazine]	33%	
CCC(C(=O)N1CCN(c2nc(Cc3ccc(F)cc3)ns2)CC1C)c1ccccc1 (stereo not drawn) [compound 8, 1-(2-phenylbutanoyl)-4-[3-(4-fluorobenzyl)-1,2,4-thiadiazol-5-yl]-2-methylpiperazine]	71%	1.49 µM
COc1cccc(Cc2nsc(N3CCN(C(=O)c4ccc(C(C)(C)C)cc4)C(C)C3)n2)c1 (stereo not drawn) [compound 146, 1-(4-tert-butylbenzoyl)-4-[3-(3-methoxybenzyl)-1,2,4-thiadiazol-5-yl]-2-methylpiperazine]	94%	0.72 µM
COc1ccc(S(=O)(=O)N2CCN(c3nc(Cc4ccc(C)cc4)ns3)CC2)cc1 [compound 68, 1-[4-methoxyphenylsulfonyl]-4-[3-(4-methylbenzyl)-1,2,4-thiadiazol-5-yl]piperazine]	53%	0.000255 µM
COc1ccc(S(=O)(=O)N2CCN(c3nc(Cc4ccc(Cl)cc4)ns3)CC2)cc1 [compound 31, 1-[4-methoxyphenylsulfonyl]-4-[3-(4-chlorobenzyl)-1,2,4-thiadiazol-5-yl]piperazine]	59%	0.000169 µM
Cc1ccc(Cc2nsc(N3CCN(S(=O)(=O)c4ccc(Br)cc4)CC3)n2)cc1 [compound 64, 1-[4-bromophenylsulfonyl]-4-[3-(4-methylbenzyl)-1,2,4-thiadiazol-5-yl]piperazine]	58%	
COc1cccc(Cc2nsc(N3CCN(C(=O)c4ccccc4)C(C)C3)n2)c1 (stereo not drawn) [compound 173, 1-benzoyl-4-[3-(3-methoxybenzyl)-1,2,4-thiadiazol-5-yl]-2-methylpiperazine]	85%	
Cc1ccccc1C(=O)N1CCN(c2nc(Cc3ccc(F)cc3)ns2)CC1 [compound 152, 1-(2-methylbenzoyl)-4-[3-(4-fluorobenzyl)-1,2,4-thiadiazol-5-yl]piperazine]	66%	1.15 µM
CC1CN(c2nc(Cc3ccc(F)cc3)ns2)CCN1C(=O)c1cccc(C(F)(F)F)c1 (stereo not drawn) [compound 145, 1-(3-trifluoromethylbenzoyl)-4-[3-(4-fluorobenzyl)-1,2,4-thiadiazol-5-yl]-2-methylpiperazine]	60%	0.62 µM
O=S(=O)(c1cc(Cl)ccc1Cl)N1CCN(c2nc(Cc3ccc(Cl)cc3)ns2)CC1 [compound 39, 1-[2,5-dichlorophenylsulfonyl]-4-[3-(4-chlorobenzyl)-1,2,4-thiadiazol-5-yl]piperazine]	25%	0.16 µM
Cc1ccc(Cc2nsc(N3CCN(C(=O)c4ccccc4)C(C)C3)n2)cc1 (stereo not drawn) [compound 169, 1-benzoyl-4-[3-(4-methylbenzyl)-1,2,4-thiadiazol-5-yl]-2-methylpiperazine]	91%	
CCCCc1ccc(C(=O)N2CCN(c3nc(Cc4ccc(F)cc4)ns3)CC2C)cc1 (stereo not drawn) [compound 120, 1-(4-butylbenzoyl)-4-[3-(4-fluorobenzyl)-1,2,4-thiadiazol-5-yl]-2-methylpiperazine]	120%	0.0987 µM
COc1ccc(S(=O)(=O)N2CCN(c3nc(Cc4cccc(OC)c4)ns3)CC2C)cc1 (stereo not drawn) [compound 208, 1-[4-methoxyphenylsulfonyl]-4-[3-(3-methoxybenzyl)-1,2,4-thiadiazol-5-yl]-2-methyl-piperazine]		0.0073 µM
O=C(c1ccc(F)cc1)N1CCN(c2nc(Cc3ccccc3)ns2)CC1 [compound 163, 1-(4-fluorobenzoyl)-4-[3-benzyl-1,2,4-thiadiazol-5-yl]piperazine]	67%	3.61 µM
CCc1ccc(C(=O)N2CCN(c3nc(Cc4ccc(Cl)cc4)ns3)CC2)cc1 [compound 165, 1-(4-ethylbenzoyl)-4-[3-(4-chlorobenzyl)-1,2,4-thiadiazol-5-yl]piperazine]	133%	
